The target of one assay is BRD4 (BDII_E352-M457) (Homo sapiens (Human), UniProt O60885). The experiment in a line: TR-FRET bromodomain binding assay, BRD4 BDII. The note with it: mean Ki, calculated from IC50, probe Kd and probe concentration. An outline of the steps:
(§1)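 His-tagged BRD4 BDI (12 nM, with 100 nM Alexa647 BET-inhibitor probe) or BDII (4 nM, 30 nM probe), plus 1 nM Eu-anti-His antibody, in pH 6.0 phosphate buffer with 2% DMSO. Equilibrated 1 h at room temperature and read by TR-FRET. IC50 from a 4-parameter fit was converted to Ki using probe Kd and probe concentration.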

Another assay has as its target BRD4 (BDI_K57-E168) (Homo sapiens (Human), UniProt O60885). The experiment in a line: TR-FRET bromodomain binding assay, BRD4 BDI. The note with it: mean Ki, calculated from IC50, probe Kd and probe concentration. An outline of the steps: as §1

We go through 22 compounds from patent US10633379B2, “Bromodomain inhibitors” (AbbVie Inc., priority 2016, dated 2020).

In general, Ki refers to the equilibrium dissociation constant of an inhibitor or competing ligand from its target.

Consider `CCNC(=O)c1cc2c(-c3cc(C(C)(O)CF)ccc3Oc3c(C)cc(F)cc3C)cn(C)c(=O)c2[nH]1` (centres unmarked) [Example 83, N-ethyl-4-[2-(4-fluoro-2,6-dimethylphenoxy)-5-(1-fluoro-2-hydroxypropan-2-yl)phenyl]-6-methyl-7-oxo-6,7-dihydro-1H-pyrrolo[2,3-c]pyridine-2-carboxamide], for which the figures for the Ki on BRD4 (BDII_E352-M457) and at BRD4 (BDI_K57-E168) were 1.1 nM and 350 nM, respectively.

`CCNC(=O)c1cc2c(-c3cc(C(C)(C)O)ccc3Oc3c(C)cc(Cl)cc3C)cn(C)c(=O)c2[nH]1` [Example 84, 4-[2-(4-chloro-2,6-dimethylphenoxy)-5-(2-hydroxypropan-2-yl)phenyl]-N-ethyl-6-methyl-7-oxo-6,7-dihydro-1H-pyrrolo[2,3-c]pyridine-2-carboxamide]: the values for the Ki on BRD4 (BDII_E352-M457) and on BRD4 (BDI_K57-E168) were 1.9 nM and 610 nM, respectively.

With `CCNC(=O)c1cc2c(-c3cc(C(C)(C)O)ccc3Oc3c(C)cc(S(C)(=O)=O)cc3C)cn(C)c(=O)c2[nH]1` [Example 85, N-ethyl-4-{5-(2-hydroxypropan-2-yl)-2-[4-(methanesulfonyl)-2,6-dimethylphenoxy]phenyl}-6-methyl-7-oxo-6,7-dihydro-1H-pyrrolo[2,3-c]pyridine-2-carboxamide], the values for the Ki on BRD4 (BDII_E352-M457) and on BRD4 (BDI_K57-E168) were 1.8 nM and 433 nM, respectively.

Consider `CCNC(=O)c1cc2c(-c3cc(C(C)(O)C(F)(F)F)ccc3Oc3c(C)cc(F)cc3C)cn(C)c(=O)c2[nH]1` (centres unmarked) [Example 86, N-ethyl-4-[2-(4-fluoro-2,6-dimethylphenoxy)-5-(1,1,1-trifluoro-2-hydroxypropan-2-yl)phenyl]-6-methyl-7-oxo-6,7-dihydro-1H-pyrrolo[2,3-c]pyridine-2-carboxamide], for which the Ki on BRD4 (BDII_E352-M457) was 1.4 nM; at BRD4 (BDI_K57-E168), 416 nM.

`Cc1cc(F)cc(C)c1Oc1ccc(C(C)(O)CF)cc1-c1cn(C)c(=O)c2[nH]c(C(=O)NC(C)(C)C)cc12` (centres unmarked) [Example 87, N-tert-butyl-4-[2-(4-fluoro-2,6-dimethylphenoxy)-5-(1-fluoro-2-hydroxypropan-2-yl)phenyl]-6-methyl-7-oxo-6,7-dihydro-1H-pyrrolo[2,3-c]pyridine-2-carboxamide]: the Ki at BRD4 (BDII_E352-M457) is 2.8 nM; at BRD4 (BDI_K57-E168) it was 501 nM.

Regarding `CCNC(=O)c1cc2c(-c3cc(C(C)(O)CF)ccc3Oc3c(C)cc(Cl)cc3C)cn(C)c(=O)c2[nH]1` (centres unmarked) [Example 88, 4-[2-(4-chloro-2,6-dimethylphenoxy)-5-(1-fluoro-2-hydroxypropan-2-yl)phenyl]-N-ethyl-6-methyl-7-oxo-6,7-dihydro-1H-pyrrolo[2,3-c]pyridine-2-carboxamide], the Ki at BRD4 (BDII_E352-M457) is 1.1 nM; on BRD4 (BDI_K57-E168), 389 nM.

As for `CCNC(=O)c1cc2c(-c3cc(C(C)(C)O)cnc3-c3ccc(F)cc3F)cn(C)c(=O)c2[nH]1` [Example 89, 4-[2-(2,4-difluorophenyl)-5-(2-hydroxypropan-2-yl)pyridin-3-yl]-N-ethyl-6-methyl-7-oxo-6,7-dihydro-1H-pyrrolo[2,3-c]pyridine-2-carboxamide], the Ki on BRD4 (BDII_E352-M457) is 1.7 nM; at BRD4 (BDI_K57-E168), 281 nM.

As to `Cc1cc(S(C)(=O)=O)cc(C)c1Oc1ccc(C(C)(C)O)cc1-c1cn(C)c(=O)c2[nH]c(C(=O)NC(C)(C)C)cc12` [Example 90, N-tert-butyl-4-{5-(2-hydroxypropan-2-yl)-2-[4-(methanesulfonyl)-2,6-dimethylphenoxy]phenyl}-6-methyl-7-oxo-6,7-dihydro-1H-pyrrolo[2,3-c]pyridine-2-carboxamide], the results for the Ki on BRD4 (BDII_E352-M457) and at BRD4 (BDI_K57-E168) were 2 nM and 158 nM, respectively.

For `CCNC(=O)c1cc2c(-c3cc(C(C)(C)O)cnc3Oc3c(C)ccc(F)c3C)cn(C)c(=O)c2[nH]1` [Example 91, N-ethyl-4-[2-(3-fluoro-2,6-dimethylphenoxy)-5-(2-hydroxypropan-2-yl)pyridin-3-yl]-6-methyl-7-oxo-6,7-dihydro-1H-pyrrolo[2,3-c]pyridine-2-carboxamide], the Ki was 1.6 nM at BRD4 (BDII_E352-M457) and 271 nM on BRD4 (BDI_K57-E168).

As for `Cc1cc(S(C)(=O)=O)cc(C)c1Oc1ncc(C(C)(C)O)cc1-c1cn(C)c(=O)c2[nH]c(C(=O)NC(C)(C)C)cc12` [Example 92, N-tert-butyl-4-{5-(2-hydroxypropan-2-yl)-2-[4-(methanesulfonyl)-2,6-dimethylphenoxy]pyridin-3-yl}-6-methyl-7-oxo-6,7-dihydro-1H-pyrrolo[2,3-c]pyridine-2-carboxamide], the Ki was 12.1 nM at BRD4 (BDII_E352-M457) and 410 nM at BRD4 (BDI_K57-E168).

`CCNC(=O)c1cc2c(-c3cc(C(C)(C)O)cnc3Oc3c(C)cc(S(C)(=O)=O)cc3C)cn(C)c(=O)c2[nH]1` [Example 93, N-ethyl-4-{5-(2-hydroxypropan-2-yl)-2-[4-(methanesulfonyl)-2,6-dimethylphenoxy]pyridin-3-yl}-6-methyl-7-oxo-6,7-dihydro-1H-pyrrolo[2,3-c]pyridine-2-carboxamide]: the values for the Ki on BRD4 (BDII_E352-M457) and at BRD4 (BDI_K57-E168) were 10.9 nM and 502 nM, respectively.

Regarding `CCNC(=O)c1cc2c(-c3cc(C(C)(C)O)cnc3Oc3c(C)cc(Cl)cc3C)cn(C)c(=O)c2[nH]1` [Example 94, 4-[2-(4-chloro-2,6-dimethylphenoxy)-5-(2-hydroxypropan-2-yl)pyridin-3-yl]-N-ethyl-6-methyl-7-oxo-6,7-dihydro-1H-pyrrolo[2,3-c]pyridine-2-carboxamide], the Ki was 3.7 nM at BRD4 (BDII_E352-M457) and 236 nM at BRD4 (BDI_K57-E168).

Turning to `Cc1cc(Cl)cc(C)c1Oc1ncc(C(C)(C)O)cc1-c1cn(C)c(=O)c2[nH]c(C(=O)NC(C)(C)C)cc12` [Example 95, N-tert-butyl-4-[2-(4-chloro-2,6-dimethylphenoxy)-5-(2-hydroxypropan-2-yl)pyridin-3-yl]-6-methyl-7-oxo-6,7-dihydro-1H-pyrrolo[2,3-c]pyridine-2-carboxamide], the Ki on BRD4 (BDII_E352-M457) was 4.8 nM; at BRD4 (BDI_K57-E168), 333 nM.

As for `CCNC(=O)c1cc2c(-c3nc(C(C)(C)O)ccc3Oc3c(C)cc(F)cc3C)cn(C)c(=O)c2[nH]1` [Example 96, N-ethyl-4-[3-(4-fluoro-2,6-dimethylphenoxy)-6-(2-hydroxypropan-2-yl)pyridin-2-yl]-6-methyl-7-oxo-6,7-dihydro-1H-pyrrolo[2,3-c]pyridine-2-carboxamide], the Ki is 9.1 nM on BRD4 (BDII_E352-M457) and 801 nM on BRD4 (BDI_K57-E168).

Regarding `Cc1cc(F)cc(C)c1Oc1ccc(C(C)(C)O)nc1-c1cn(C)c(=O)c2[nH]c(C(=O)NC(C)(C)C)cc12` [Example 97, N-tert-butyl-4-[3-(4-fluoro-2,6-dimethylphenoxy)-6-(2-hydroxypropan-2-yl)pyridin-2-yl]-6-methyl-7-oxo-6,7-dihydro-1H-pyrrolo[2,3-c]pyridine-2-carboxamide], the Ki on BRD4 (BDII_E352-M457) was 24.7 nM; at BRD4 (BDI_K57-E168), 657 nM.

For `CCNC(=O)c1cc2c(-c3cc(C(C)(C)O)ccc3Oc3c(C)cc(F)cc3C(F)F)cn(C)c(=O)c2[nH]1` [Example 98, 4-{2-[2-(difluoromethyl)-4-fluoro-6-methylphenoxy]-5-(2-hydroxypropan-2-yl)phenyl}-N-ethyl-6-methyl-7-oxo-6,7-dihydro-1H-pyrrolo[2,3-c]pyridine-2-carboxamide], the Ki on BRD4 (BDII_E352-M457) is 9.6 nM; at BRD4 (BDI_K57-E168) it was 682 nM.

In the case of `CCNC(=O)c1cc2c(-c3cc(C(C)(C)O)ccc3Oc3c(C)ccc(Cl)c3C)cn(C)c(=O)c2[nH]1` [Example 99, 4-[2-(3-chloro-2,6-dimethylphenoxy)-5-(2-hydroxypropan-2-yl)phenyl]-N-ethyl-6-methyl-7-oxo-6,7-dihydro-1H-pyrrolo[2,3-c]pyridine-2-carboxamide], the Ki is 1.8 nM on BRD4 (BDII_E352-M457) and 431 nM on BRD4 (BDI_K57-E168).

Take `Cn1cc(-c2cc(C(C)(C)O)cnc2Oc2c(Cl)cc(F)cc2Cl)c2cc(C(=O)NC(C)(C)C)[nH]c2c1=O` [Example 100, N-tert-butyl-4-[2-(2,6-dichloro-4-fluorophenoxy)-5-(2-hydroxypropan-2-yl)pyridin-3-yl]-6-methyl-7-oxo-6,7-dihydro-1H-pyrrolo[2,3-c]pyridine-2-carboxamide]: the Ki on BRD4 (BDII_E352-M457) was 5.6 nM; at BRD4 (BDI_K57-E168) it was 115 nM.

On to `CCNC(=O)c1cc2c(-c3cc(C(C)(C)O)cnc3Oc3c(Cl)cc(F)cc3Cl)cn(C)c(=O)c2[nH]1` [Example 101, 4-[2-(2,6-dichloro-4-fluorophenoxy)-5-(2-hydroxypropan-2-yl)pyridin-3-yl]-N-ethyl-6-methyl-7-oxo-6,7-dihydro-1H-pyrrolo[2,3-c]pyridine-2-carboxamide], for which the figures for the Ki on BRD4 (BDII_E352-M457) and on BRD4 (BDI_K57-E168) were 2.5 nM and 110 nM, respectively.

As to `CCNC(=O)c1cc2c(-c3cc(C(C)(O)CF)cnc3Oc3c(C)cc(Cl)cc3C)cn(C)c(=O)c2[nH]1` (centres unmarked) [Example 102, 4-[2-(4-chloro-2,6-dimethylphenoxy)-5-(1-fluoro-2-hydroxypropan-2-yl)pyridin-3-yl]-N-ethyl-6-methyl-7-oxo-6,7-dihydro-1H-pyrrolo[2,3-c]pyridine-2-carboxamide], the Ki on BRD4 (BDII_E352-M457) is 2.5 nM; at BRD4 (BDI_K57-E168), 309 nM.

With `Cc1cc(Cl)cc(C)c1Oc1ncc(C(C)(O)CF)cc1-c1cn(C)c(=O)c2[nH]c(C(=O)NC(C)(C)C)cc12` (centres unmarked) [Example 103, N-tert-butyl-4-[2-(4-chloro-2,6-dimethylphenoxy)-5-(1-fluoro-2-hydroxypropan-2-yl)pyridin-3-yl]-6-methyl-7-oxo-6,7-dihydro-1H-pyrrolo[2,3-c]pyridine-2-carboxamide], the Ki on BRD4 (BDII_E352-M457) was 3.3 nM; on BRD4 (BDI_K57-E168), 450 nM.

For `CCNC(=O)c1cc2c(-c3cc(C(C)(C)O)ccc3Oc3c(C)ccc(F)c3C)cn(C)c(=O)c2[nH]1` [Example 104, N-ethyl-4-[2-(3-fluoro-2,6-dimethylphenoxy)-5-(2-hydroxypropan-2-yl)phenyl]-6-methyl-7-oxo-6,7-dihydro-1H-pyrrolo[2,3-c]pyridine-2-carboxamide], the results for the Ki at BRD4 (BDII_E352-M457) and at BRD4 (BDI_K57-E168) were 1.2 nM and 375 nM, respectively.
